Test results reported in ChEMBL document CHEMBL1201861, “Genomics of Drug Sensitity in Cancer screening data, Wellcome Trust Sanger Institute”.

Assays:
Assay in all cases: cells
Settings in all cases: Homo sapiens
D-263MG = assay type: functional, cell-based
Description: SANGER: Inhibition of human D-263MG cell growth in a cell viability assay.

NKM-1 = assay type: functional, cell-based
Description: SANGER: Inhibition of human NKM-1 cell growth in a cell viability assay.

J-RT3-T3-5 = assay type: functional, cell-based
Description: SANGER: Inhibition of human J-RT3-T3-5 cell growth in a cell viability assay.

DSH1 = assay type: functional, cell-based
Description: SANGER: Inhibition of human DSH1 cell growth in a cell viability assay.

COLO-829 = assay type: functional, cell-based
Description: SANGER: Inhibition of human COLO-829 cell growth in a cell viability assay.

HT = assay type: functional, cell-based
Description: SANGER: Inhibition of human HT cell growth in a cell viability assay.

ONS-76 = assay type: functional, cell-based
Description: SANGER: Inhibition of human ONS-76 cell growth in a cell viability assay.

LS-411N = assay type: functional, cell-based
K562 = assay type: functional, cell-based
Description: SANGER: Inhibition of human K-562 cell growth in a cell viability assay.

NCI-H526 = assay type: functional, cell-based
Description: SANGER: Inhibition of human NCI-H526 cell growth in a cell viability assay.

NCI-H1355 = assay type: functional, cell-based
Description: SANGER: Inhibition of human NCI-H1355 cell growth in a cell viability assay.

DOHH-2 = assay type: functional, cell-based
Description: SANGER: Inhibition of human DOHH-2 cell growth in a cell viability assay.

EW-16 = assay type: functional, cell-based
Description: SANGER: Inhibition of human EW-16 cell growth in a cell viability assay.

MHH-NB-11 = assay type: functional, cell-based
Description: SANGER: Inhibition of human MHH-NB-11 cell growth in a cell viability assay.

L-428 = assay type: functional, cell-based
Description: SANGER: Inhibition of human L-428 cell growth in a cell viability assay.

GR-ST = assay type: functional, cell-based
Description: SANGER: Inhibition of human GR-ST cell growth in a cell viability assay.

LAMA-84 = assay type: functional, cell-based
Description: SANGER: Inhibition of human LAMA-84 cell growth in a cell viability assay.

RS4-11 = assay type: functional, cell-based
Description: SANGER: Inhibition of human RS4-11 cell growth in a cell viability assay.

HL-60 = assay type: functional, cell-based
Description: SANGER: Inhibition of human HL-60 cell growth in a cell viability assay.

BT-474 = assay type: functional, cell-based
Description: SANGER: Inhibition of human BT-474 cell growth in a cell viability assay.

LS-1034 = assay type: functional, cell-based
Description: SANGER: Inhibition of human LS-1034 cell growth in a cell viability assay.

NCI-H2126 = assay type: functional, cell-based
Description: SANGER: Inhibition of human NCI-H2126 cell growth in a cell viability assay.

L-363 = assay type: functional, cell-based
Description: SANGER: Inhibition of human L-363 cell growth in a cell viability assay.

C2BBe1 = assay type: functional, cell-based
Description: SANGER: Inhibition of human C2BBe1 cell growth in a cell viability assay.

SH-4 = assay type: functional, cell-based
Description: SANGER: Inhibition of human SH-4 cell growth in a cell viability assay.

COLO-320-HSR = assay type: functional, cell-based
Description: SANGER: Inhibition of human COLO-320-HSR cell growth in a cell viability assay.

MFH-ino = assay type: functional, cell-based
Description: SANGER: Inhibition of human MFH-ino cell growth in a cell viability assay.

EM-2 = assay type: functional, cell-based
Description: SANGER: Inhibition of human EM-2 cell growth in a cell viability assay.

IST-MES1 = assay type: functional, cell-based
Description: SANGER: Inhibition of human IST-MES1 cell growth in a cell viability assay.

CTB-1 = assay type: functional, cell-based
Description: SANGER: Inhibition of human CTB-1 cell growth in a cell viability assay.

MV4-11 = assay type: functional, cell-based, MV-4-11
Description: SANGER: Inhibition of human MV-4-11 cell growth in a cell viability assay.

LB373-MEL-D = assay type: functional, cell-based
Description: SANGER: Inhibition of human LB373-MEL-D cell growth in a cell viability assay.

LU-134-A = assay type: functional, cell-based
Description: SANGER: Inhibition of human LU-134-A cell growth in a cell viability assay.

ES7 = assay type: functional, cell-based
Description: SANGER: Inhibition of human ES7 cell growth in a cell viability assay.

NCI-H747 = assay type: functional, cell-based
Description: SANGER: Inhibition of human NCI-H747 cell growth in a cell viability assay.

PSN1 = assay type: functional, cell-based
Description: SANGER: Inhibition of human PSN1 cell growth in a cell viability assay.

OVCAR-4 = assay type: functional, cell-based
Description: SANGER: Inhibition of human OVCAR-4 cell growth in a cell viability assay.

NMC-G1 = assay type: functional, cell-based
Description: SANGER: Inhibition of human NMC-G1 cell growth in a cell viability assay.

KE-37 = assay type: functional, cell-based
Description: SANGER: Inhibition of human KE-37 cell growth in a cell viability assay.

NCI-H1299 = assay type: functional, cell-based
Description: SANGER: Inhibition of human NCI-H1299 cell growth in a cell viability assay.

SW 962 = assay type: functional, cell-based
Description: SANGER: Inhibition of human SW962 cell growth in a cell viability assay.

NCI-H82 = assay type: functional, cell-based
Description: SANGER: Inhibition of human NCI-H82 cell growth in a cell viability assay.

SF-126 = assay type: functional, cell-based
Description: SANGER: Inhibition of human SF126 cell growth in a cell viability assay.

TE-5 = assay type: functional, cell-based
Description: SANGER: Inhibition of human TE-5 cell growth in a cell viability assay.

GT3TKB = assay type: functional, cell-based
Description: SANGER: Inhibition of human GT3TKB cell growth in a cell viability assay.

EW-11 = assay type: functional, cell-based
Description: SANGER: Inhibition of human EW-11 cell growth in a cell viability assay.

DU-4475 = assay type: functional, cell-based
Description: SANGER: Inhibition of human DU-4475 cell growth in a cell viability assay.

VA-ES-BJ = assay type: functional, cell-based
Description: SANGER: Inhibition of human VA-ES-BJ cell growth in a cell viability assay.

KS-1 = assay type: functional, cell-based
Description: SANGER: Inhibition of human KS-1 cell growth in a cell viability assay.

MLMA = assay type: functional, cell-based
Description: SANGER: Inhibition of human MLMA cell growth in a cell viability assay.

SF-268 = assay type: functional, cell-based
Description: SANGER: Inhibition of human SF268 cell growth in a cell viability assay.

HCE-T = assay type: functional, cell-based
Description: SANGER: Inhibition of human HCE-T cell growth in a cell viability assay.

ETK-1 = assay type: functional, cell-based
Description: SANGER: Inhibition of human ETK-1 cell growth in a cell viability assay.

MOLT-4 = assay type: functional, cell-based
Description: SANGER: Inhibition of human MOLT-4 cell growth in a cell viability assay.

MZ2-MEL = assay type: functional, cell-based
Description: SANGER: Inhibition of human MZ2-MEL cell growth in a cell viability assay.

LAN-6 = assay type: functional, cell-based
Description: SANGER: Inhibition of human LAN-6 cell growth in a cell viability assay.

no-10 = assay type: functional, cell-based
Description: SANGER: Inhibition of human no-10 cell growth in a cell viability assay.

MC116 = assay type: functional, cell-based
Description: SANGER: Inhibition of human MC116 cell growth in a cell viability assay.

BB49-HNC = assay type: functional, cell-based
Description: SANGER: Inhibition of human BB49-HNC cell growth in a cell viability assay.

HD-MY-Z = assay type: functional, cell-based
Description: SANGER: Inhibition of human HD-MY-Z cell growth in a cell viability assay.

NOMO-1 = assay type: functional, cell-based
Description: SANGER: Inhibition of human NOMO-1 cell growth in a cell viability assay.

LXF-289 cell line = assay type: functional, cell-based
Description: SANGER: Inhibition of human LXF-289 cell growth in a cell viability assay.

NCI-H720 = assay type: functional, cell-based
Description: SANGER: Inhibition of human NCI-H720 cell growth in a cell viability assay.

ML-2 = assay type: functional, cell-based
Description: SANGER: Inhibition of human ML-2 cell growth in a cell viability assay.

## O=c1cc(N2CCOCC2)oc2c(-c3cccc4c3sc3ccccc34)cccc12
D-263MG
  IC50: > 2000 nM
NKM-1
  IC50: > 2000 nM
J-RT3-T3-5
  IC50: > 2000 nM
DSH1
  IC50: > 2000 nM
COLO-829
  IC50: > 2000 nM
HT
  IC50: > 2000 nM
ONS-76
  IC50: > 2000 nM
LS-411N
  IC50: > 2000 nM
K562
  IC50: > 2000 nM
NCI-H526
  IC50: 284 nM
NCI-H1355
  IC50: > 2000 nM
DOHH-2
  IC50: > 2000 nM
EW-16
  IC50: > 2000 nM
MHH-NB-11
  IC50: > 2000 nM
L-428
  IC50: > 2000 nM
GR-ST
  IC50: > 2000 nM
LAMA-84
  IC50: 988 nM
RS4-11
  IC50: > 2000 nM
HL-60
  IC50: 1380 nM
BT-474
  IC50: > 2000 nM
LS-1034
  IC50: > 2000 nM
NCI-H2126
  IC50: > 2000 nM
L-363
  IC50: > 2000 nM
C2BBe1
  IC50: > 2000 nM
SH-4
  IC50: > 2000 nM
COLO-320-HSR
  IC50: > 2000 nM
MFH-ino
  IC50: > 2000 nM
EM-2
  IC50: > 2000 nM
IST-MES1
  IC50: > 2000 nM
CTB-1
  IC50: 1120 nM
MV4-11
  IC50: > 2000 nM
LB373-MEL-D
  IC50: > 2000 nM
LU-134-A
  IC50: > 2000 nM
ES7
  IC50: > 2000 nM
NCI-H747
  IC50: > 2000 nM
PSN1
  IC50: > 2000 nM
OVCAR-4
  IC50: > 2000 nM
NMC-G1
  IC50: > 2000 nM
KE-37
  IC50: > 2000 nM
NCI-H1299
  IC50: > 2000 nM
SW 962
  IC50: > 2000 nM
NCI-H82
  IC50: > 2000 nM
SF-126
  IC50: > 2000 nM
TE-5
  IC50: > 2000 nM
GT3TKB
  IC50: > 2000 nM
EW-11
  IC50: > 2000 nM
DU-4475
  IC50: > 2000 nM
VA-ES-BJ
  IC50: > 2000 nM
KS-1
  IC50: > 2000 nM
MLMA
  IC50: > 2000 nM
SF-268
  IC50: > 2000 nM
HCE-T
  IC50: > 2000 nM
ETK-1
  IC50: > 2000 nM
MOLT-4
  IC50: > 2000 nM
MZ2-MEL
  IC50: > 2000 nM
LAN-6
  IC50: > 2000 nM
no-10
  IC50: > 2000 nM
MC116
  IC50: > 2000 nM
BB49-HNC
  IC50: > 2000 nM
HD-MY-Z
  IC50: > 2000 nM
NOMO-1
  IC50: > 2000 nM
LXF-289 cell line
  IC50: > 2000 nM

## Cn1c(=O)n(-c2ccc(C(C)(C)C#N)cc2)c2c3cc(-c4cnc5ccccc5c4)ccc3ncc21 [DACTOLISIB]
D-263MG
  IC50: 29.3 nM
NKM-1
  IC50: 54.8 nM
J-RT3-T3-5
  IC50: 23 nM
DSH1
  IC50: 407 nM
COLO-829
  IC50: 296 nM
HT
  IC50: 41 nM
ONS-76
  IC50: 29.1 nM
LS-411N
  IC50: 187 nM
K562
  IC50: > 2000 nM
NCI-H526
  IC50: 824 nM
NCI-H1355
  IC50: 46.3 nM
DOHH-2
  IC50: 46.4 nM
EW-16
  IC50: 18 nM
MHH-NB-11
  IC50: 629 nM
L-428
  IC50: 275 nM
GR-ST
  IC50: 52.9 nM
LAMA-84
  IC50: 35.9 nM
RS4-11
  IC50: 26.9 nM
HL-60
  IC50: 123 nM
BT-474
  IC50: 236 nM
NCI-H720
  IC50: 3.57 nM
LS-1034
  IC50: 491 nM
NCI-H2126
  IC50: 148 nM
L-363
  IC50: 10.7 nM
C2BBe1
  IC50: 75 nM
SH-4
  IC50: 75.2 nM
COLO-320-HSR
  IC50: 403 nM
ML-2
  IC50: 60.6 nM
EM-2
  IC50: 54.4 nM
IST-MES1
  IC50: 237 nM
CTB-1
  IC50: 24.7 nM
MV4-11
  IC50: 28.7 nM
LU-134-A
  IC50: 79 nM
ES7
  IC50: 18.1 nM
NCI-H747
  IC50: 119 nM
PSN1
  IC50: 44.4 nM
OVCAR-4
  IC50: 73.4 nM
NMC-G1
  IC50: 121 nM
KE-37
  IC50: 58.8 nM
NCI-H1299
  IC50: 150 nM
SW 962
  IC50: 26.8 nM
NCI-H82
  IC50: > 2000 nM
SF-126
  IC50: 19.4 nM
TE-5
  IC50: 46.8 nM
GT3TKB
  IC50: 118 nM
EW-11
  IC50: 96.9 nM
DU-4475
  IC50: 9.44 nM
VA-ES-BJ
  IC50: 17.8 nM
KS-1
  IC50: 44.7 nM
MLMA
  IC50: 137 nM
SF-268
  IC50: 102 nM
HCE-T
  IC50: 83.7 nM
ETK-1
  IC50: 7.88 nM
MOLT-4
  IC50: 25.1 nM
MZ2-MEL
  IC50: 39.7 nM
LAN-6
  IC50: > 2000 nM
no-10
  IC50: 201 nM
MC116
  IC50: 57.8 nM
BB49-HNC
  IC50: 174 nM
HD-MY-Z
  IC50: 44.9 nM
NOMO-1
  IC50: 45.9 nM
LXF-289 cell line
  IC50: 26 nM
